Reference: patent US12390467B2, “Necroptosis inducers or autophagy inhibitors or a combination thereof” (The University of Toledo, priority 2018, dated 2025)

How the values were obtained:
Format in all cases: cell-based
[1] = system: β-catenin in MDA-MB468; assay: Western blot, β-catenin, MDA-MB468
Description: The TNBC cells were seeded in a culture flask and incubated for 24 h. The cells were then incubated with different concentrations of the lead compounds and re-incubated for an additional 12 or 24 h. […] The bicinchoninic acid (BCA) was used to determine protein concentration in the cell extracts (G-BIOSCIENCES, St. Louis, MO, USA). […] The membrane was blocked using 5% milk in Tris-buffered Tween 20 saline for 30 minutes. […] A ChemiDoc™ MP System imaging system from Bio-Rad (Hercules, CA, USA) was used for blots reading. Blots were used to obtain the protein bands, followed by quantification of the bands using image J software (NIH, Bethesda, MD, USA). All of the data were expressed as the ratio of β-actin or GAPDH.

[2] = system: S1M180 and H460-MX20 ABCG2-overexpressing cells vs parental S1 and H460; assay: Collateral sensitivity in ABCG2-overexpressing versus parental cells; settings: 0.3, 3, and 30 μM
Excerpt: The data is shown as means±SEM of three independent experiments.

[3] = system: Bak, Bax, Bcl-2, caspases, PARP, cytochrome c in BT-20 cells; assay: Western blot, apoptotic proteins
Description: The TNBC cells were seeded in a culture flask and incubated for 24 h. The cells were then incubated with different concentrations of the lead compounds and re-incubated for an additional 12 or 24 h. […] The bicinchoninic acid (BCA) was used to determine protein concentration in the cell extracts (G-BIOSCIENCES, St. Louis, MO, USA). […] The membrane was blocked using 5% milk in Tris-buffered Tween 20 saline for 30 minutes. The membrane was then incubated overnight with primary antibodies against Bak, Bax, Bcl-2, caspase9, caspase 3, caspase 7, PARP, cytochrome c, N-cadherin, E-cadherin, c-Myc, dishevelled segment polarity protein 3 (DVL3), dishevelled segment polarity protein 2 (DVL2), Vimentin, mitogen-activated protein kinase kinase (MAPKK also known as MEK1/2), β-catenin, low-density lipoprotein receptor-related protein 6 (LRP6), receptor-interacting protein kinase (RIP), phosphorylated RIP (p-RIP), mixed lineage kinase domain like pseudokinase(MLKL), Caspase 8, light chain 3 (LC3), lysosomal-associated membrane protein 1 (LAMP1), unc-51 like autophagy activating kinase 1 (ULK1), ras associated protein 7 (Rab7), ras associated protein 5 (Rab5), Beclin 1, mechanistic target of rapamycin (mTOR), tumor necrosis factor alpha (TNF-α), tumor necrosis factor receptor 1 (TNFR1), tumor necrosis factor receptor 2 (TNFR2), Fas-associated protein with death domain (FADD), Fas ligand (Fas), TNF-related apoptosis-inducing ligand (TRAIL), death receptor 5 (DR5), Tumor necrosis factor receptor type 1-associated DEATH domain (TRADD), receptor-interacting protein kinase 3 (RIP3), β-actin or GAPDH in 1:1000 dilution in 5% milk or 5% BSA at 4° C. Horseradish peroxidase-labeled (HRP) anti-rabbit or anti-mouse secondary antibodies (1:5,000 dilution) were added and incubated the next day for an additional 1 h. A ChemiDoc™ MP System imaging system from Bio-Rad (Hercules, CA, USA) was used for blots reading. Blots were used to obtain the protein bands, followed by quantification of the bands using image J software (NIH, Bethesda, MD, USA). All of the data were expressed as the ratio of β-actin or GAPDH.

[4] = system: TNBC cell lines; assay: Cytotoxicity screening (MTT), TNBC cell lines overall; settings: TNBC cell lines overall
Excerpt: To this end, several commercial databases were searched, and 17 similar molecules from the VitasM database were retrieved with considerable structural diversity in terms of the substitution on the aryl ring A attached to the thienopyrimidine scaffold and aryl ring B attached to hydrazino moiety. Further, the biological evaluation of the 17 molecules sheds light on the structural features deemed important for the selective cytotoxicity shown by this class of molecules. With this understanding, the 17 molecules were subjected to a screening protocol comprising of two TNBC, two non-TNBC, and one normal cell lines.
The following cancer and non-cancer cell lines were used in the initial cytotoxicity screening of the TPH104 compounds: triple negative breast cancer (TNBC): MDA-MB468, MDA-MB 231, and BT-20; non-TNBC: MCF-7 and ZR-75-1; ovarian: Ov2008; prostate: DU145; colon: HCT-116, S1, and LOVO; lung: H460; normal kidney: HEK-293; normal breast: HMEC; and normal colon: CRL-1459. All cells were cultured in Dulbecco's modified Eagle medium (DMEM), supplemented with 10% fetal bovine serum (FBS), and 1% penicillin/streptomycin (P/S). Cells were allowed to grow as adherent monolayers in T25 flasks in a humidified incubator with 5% CO2 at 37° C. for a period of 24 h, unless otherwise specified for certain experiments.
The MTT assay was used to determine the cytotoxicity of all of the compounds. Briefly, in a 96-well flat-bottom cell culture plate, the cells were seeded at a density between 3-5×10^3 cells/well (180 μl in each well) and incubated for 24 h (a hemocytometer was used for cell counting). The next day, the cells were incubated with different concentrations of the nine compounds (0, 0.1, 0.3, 1, 3, 10, 30, and 100 μM) for 72 h. After 72 h, 20 μl of 5 mg/ml of 3-(4,5-dimethylthiazol-2-yl)-2,5-diphenyltetrazolium bromide (MTT) was added to the plate and incubated with the cells for 3 h at 37° C. In this experiment, the living cells will reduce the soluble MTT dye to non-soluble purple formazan crystals. Following incubation, the media containing MTT removed via suction and 100 μL of 100% dimethyl sulfoxide (DMSO) was added to dissolve the formazan crystals. Subsequently, the plate was shaken for 2 minutes and the absorbance was measured at a wavelength of 570 nm using a SpectraMax iD3 Multi-Mode Microplate Reader (Molecular Devices, Sunnyvale, CA). The IC50 values of each compound were calculated and used to determine the selectivity ratio (IC50 in normal cells/IC50 in cancer cells) of each compound as previously described. Based on the results obtained from these experiments, the compound TPH104, which had the lowest IC50 value, was selected for further experiments.

[5] = system: ABCG2 transporter in H460/MX20, S1M180 and HEK293/R2 cells; assay: Western blot, ABCG2 transporter expression; settings: concentration dependent
Excerpt: FIG. 25: TPH104 reverses multidrug resistance by downregulating the expression of ABCG2 transporter in a concentration dependent fashion in drug resistant small cell lung cancer cells (H460/MX20), colon cancer cells (S1M180) and ABCG2-transfected cells (HEK293/R2). The bar graph represents the quantified values of the ratio of ABCG2/β-actin. The data represent mean±SEM of three independent western blots. *p<0.05, **p<0.01 compared to control.

[6] = system: BT-20 cells; assay: incuCyte live cell imaging of proliferation; settings: 0.1, 1, 3, and 10 μM
Excerpt: FIG. 4: Representative images of the anti-proliferative effect of TPH104 at different concentrations and different time points in BT-20 cells. The time lapse images were taken using an incuCyte live cell imaging instrument (10×). **p<0.01, ***p<0.001, ****p<0.0001 compared to the control.

SMILES: COc1ccc(O)c(/C=N/Nc2ncnc3scc(-c4ccc(C)cc4)c23)c1 [TPH104]
- expression of β-catenin [1]: significantly decreased
- ABCG2 transporter mediated multidrug resistance, collateral sensitivity [2]: collateral sensitivity
- expression levels of caspase 3 and cleaved caspase 3 ([3]; 2 μM or 5 μM): significantly decreased
- expression levels of caspase 7 and caspase 9 ([3]; 0.5, 1, 2, and 5 μM): did not significantly alter
- expression of Bcl2 ([3]; 0.5, 1, 2, and 5 μM): increased
- expression of Bak ([3]; 0.5, 1, 2, and 5 μM, BT-20 and MDA-MB468): not significantly altered
- PARP cleavage ([3]; 1, 2, and 5 μM): significantly cleaved
- expression of cytochrome c ([3]; 1, 2, and 5 μM): significantly decreased
- expression of Bax ([3]; 1, 2, and 5 μM, BT-20 and MDA-MB468): significantly decreased
- IC50 [4]: < 1000 nM
- expression of ABCG2 transporter [5]: downregulated
- BT-20 cell proliferation [6]: concentration-dependent and time-dependent decrease
